Values joined by “and” are separate entries in the source; they are usually repeats but may differ in a detail not shown here. Equal values may be shown once. “Also recorded” adds a separate entry of the source.
Tests used:
HEK293T cells [1] = experiment: Cell growth, IncuCyte ZOOM cell number; assay type: cell-based; conditions: for HEK293T cell growth, toxicity (in words): 24 h of treatment; for HEK293T cytotoxicity (in words): 4 days of treatment; for Cell growth (Cell#): technical replicates
Experimental: HEK293T or MCF7 cells were seeded on 96-well plates and the following day treated with compounds for indicated time. Cell number was determined with Vybrant® DyeCycle™ Green using IncuCyte™ ZOOM live cell imaging device (Essen Bioscence) and analyzed with IncuCyte™ ZOOM (2015A) software.
(top graphs) and MCF7 cells (bottom graph). Cells were treated with compounds for 2 and 4 days or 5 days in case of MCF7. Cell number was measured using IncuCyte™ ZOOM live cell imaging device. The results are MEAN +/- SEM, n=3 (technical replicates). Source data are provided as a Source Data file.
(1 picture or pasted object on this page, not shown here)

spermatocytes = experiment: Testis microinjection, meiotic chromosome spreads (SYCP1/SYCP3 staining); assay type: in vivo, mouse; conditions: wild type mice, 2 µl of 1 µM into both testes at P12, analysed at P15
Experimental: Supplementary Figure 14. Comparison of meiotic progression in the presence of MRK -740-NC and MRK-740 treated spermatocytes. Representative images of meiotic chromosome […]
(c) untreated Prdm9-/- mice are presented. At p12, mice were treated with either MRK -740-NC or MRK-740 or received no treatment. Immunofluoresence co -staining was performed with SYCP1 (green) and SYCP3 (magenta) antibodies to visualize the formation of the synaptonemal […]
mice treated with MRK-740-NC.
(1 picture or pasted object on this page, not shown here) […]
Transgenic mouse lines used in this study
Prdm9KO 2, mice have been described and were maintained on a C57BL/6 background. Mice were housed under standard conditions, were maintained on a 12- hour light/dark cycle, were fed a standard chow diet containing 6% crude fat, and were treated in compliance with the institutional guidelines for animal care and use. All experimental protocols were approved by the Animal Care and Use Committee of Biological Resource Centre at Biopolis, A*STAR, […]
Testis microinjection protocol
Seminiferous tubule microinjection was performed as previously described 3,4. At postnatal day 12 (P12) A small incision was made in the abdomen of the mouse and testes were exposed by pulling the abdominal fat pad. Testis were injected using a micro-capillary pipette injector (made in-house). […]

HEK293T cells [2] = experiment: Cell growth, IncuCyte ZOOM cell number; assay type: cell-based; conditions: for HEK293T cell growth (in words): 24 h of treatment; for Cell# - toxocity data, % Control: HEK293T-1day, Figure 6c, technical replicates
PRDM1 = PRDM1 (Homo sapiens, UniProt O75626); experiment: DSF thermal stabilisation, PRDM selectivity; assay type: binding; conditions: 250 µM MRK-740; 2 mM SAM
Experimental: (§1) DSF measurements were performed as previously described[21] using a Light Cycler 480 II instrument from Roche Applied Science. All proteins tested in these selectivity experiments were used at final concentration of 0.02 mg mL^−1 in a 0.1 M HEPES, pH 7.5 and 150 mM NaCl buffer in the presence of 2 mM SAM. Sypro Orange was purchased from Invitrogen as a 5000 × stock solution (concentration not specified by vendor) and was diluted 1:1000 to yield a 5 × working concentration. The temperature scan curves were fitted to a Boltzmann sigmoid function, and the Tm values were obtained from the midpoint of the transition.

PRDM10 = PRDM10 (Homo sapiens, UniProt Q9NQV6); experiment: DSF thermal stabilisation, PRDM selectivity; assay type: binding; conditions: 250 µM MRK-740; 2 mM SAM
Experimental: as §1

PRDM11 = PRDM11 (Homo sapiens, UniProt Q9NQV5); experiment: DSF thermal stabilisation, PRDM selectivity; assay type: binding; conditions: 250 µM MRK-740; 2 mM SAM
Experimental: as §1

PRDM12 = PRDM12 (Homo sapiens, UniProt Q9H4Q4); experiment: DSF thermal stabilisation, PRDM selectivity; assay type: binding; conditions: 250 µM MRK-740; 2 mM SAM
Experimental: as §1

PRDM13 = PRDM13 (Homo sapiens, UniProt Q9H4Q3); experiment: DSF thermal stabilisation, PRDM selectivity; assay type: binding; conditions: 250 µM MRK-740; 2 mM SAM
Experimental: as §1

PRDM14 = PRDM14 (Homo sapiens, UniProt Q9GZV8); experiment: DSF thermal stabilisation, PRDM selectivity; assay type: binding; conditions: 250 µM MRK-740; 2 mM SAM
Experimental: as §1

PRDM16 = PRDM16 (Homo sapiens, UniProt Q9HAZ2); experiment: DSF thermal stabilisation, PRDM selectivity; assay type: binding; conditions: 250 µM MRK-740; 2 mM SAM
Experimental: as §1

PRDM2 = PRDM2 (Homo sapiens, UniProt Q13029); experiment: DSF thermal stabilisation, PRDM selectivity; assay type: binding; conditions: 250 µM MRK-740; 2 mM SAM
Experimental: as §1

PRDM3 = PRDM3 (Homo sapiens, UniProt Q03112); experiment: DSF thermal stabilisation, PRDM selectivity; assay type: binding; conditions: 250 µM MRK-740; 2 mM SAM
Experimental: as §1

PRDM6 = PRDM6 (Homo sapiens, UniProt Q9NQX0); experiment: DSF thermal stabilisation, PRDM selectivity; assay type: binding; conditions: 250 µM MRK-740; 2 mM SAM
Experimental: as §1

[3] = HEK293, 2 day treatement, 10 µM
[4] = HEK293, 4 day treatement, 0.3 µM
[5] = HEK293, 4 day treatement, 10 µM

Chain of PRDM16 (Q9HAZ2 whole entry): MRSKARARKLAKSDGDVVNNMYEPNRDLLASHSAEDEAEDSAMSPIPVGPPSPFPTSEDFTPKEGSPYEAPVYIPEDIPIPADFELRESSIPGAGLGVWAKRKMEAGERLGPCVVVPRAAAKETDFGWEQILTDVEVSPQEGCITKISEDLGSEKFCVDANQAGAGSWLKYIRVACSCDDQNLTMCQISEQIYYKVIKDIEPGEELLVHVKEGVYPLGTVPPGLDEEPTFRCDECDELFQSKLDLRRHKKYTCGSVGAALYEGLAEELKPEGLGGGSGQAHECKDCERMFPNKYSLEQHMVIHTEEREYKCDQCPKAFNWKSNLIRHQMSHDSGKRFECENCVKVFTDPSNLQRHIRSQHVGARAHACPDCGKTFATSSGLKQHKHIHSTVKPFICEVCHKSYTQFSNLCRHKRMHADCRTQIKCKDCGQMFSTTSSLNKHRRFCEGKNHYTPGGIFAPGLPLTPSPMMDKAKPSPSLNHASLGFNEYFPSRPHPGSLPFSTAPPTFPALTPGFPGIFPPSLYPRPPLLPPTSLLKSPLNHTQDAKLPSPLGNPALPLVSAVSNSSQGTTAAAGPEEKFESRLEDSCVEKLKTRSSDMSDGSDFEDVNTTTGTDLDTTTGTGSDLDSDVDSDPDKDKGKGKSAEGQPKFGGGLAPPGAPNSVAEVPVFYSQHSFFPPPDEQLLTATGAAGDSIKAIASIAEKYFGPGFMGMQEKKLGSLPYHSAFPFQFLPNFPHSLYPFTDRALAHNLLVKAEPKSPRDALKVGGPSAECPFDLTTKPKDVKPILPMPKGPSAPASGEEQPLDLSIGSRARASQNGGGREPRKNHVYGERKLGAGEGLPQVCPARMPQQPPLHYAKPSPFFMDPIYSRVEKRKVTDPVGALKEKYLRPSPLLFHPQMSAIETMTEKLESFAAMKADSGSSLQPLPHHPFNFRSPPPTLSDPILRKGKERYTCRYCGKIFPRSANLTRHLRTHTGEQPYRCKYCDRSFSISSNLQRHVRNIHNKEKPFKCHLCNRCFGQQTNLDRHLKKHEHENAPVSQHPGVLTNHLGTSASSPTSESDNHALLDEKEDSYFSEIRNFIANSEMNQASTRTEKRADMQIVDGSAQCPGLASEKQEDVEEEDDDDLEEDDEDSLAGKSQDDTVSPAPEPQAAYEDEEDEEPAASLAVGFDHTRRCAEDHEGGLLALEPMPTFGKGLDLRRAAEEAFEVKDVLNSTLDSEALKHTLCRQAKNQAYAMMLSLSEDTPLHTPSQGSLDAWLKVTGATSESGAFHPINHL
Chain of PRDM2 (Q13029 whole entry): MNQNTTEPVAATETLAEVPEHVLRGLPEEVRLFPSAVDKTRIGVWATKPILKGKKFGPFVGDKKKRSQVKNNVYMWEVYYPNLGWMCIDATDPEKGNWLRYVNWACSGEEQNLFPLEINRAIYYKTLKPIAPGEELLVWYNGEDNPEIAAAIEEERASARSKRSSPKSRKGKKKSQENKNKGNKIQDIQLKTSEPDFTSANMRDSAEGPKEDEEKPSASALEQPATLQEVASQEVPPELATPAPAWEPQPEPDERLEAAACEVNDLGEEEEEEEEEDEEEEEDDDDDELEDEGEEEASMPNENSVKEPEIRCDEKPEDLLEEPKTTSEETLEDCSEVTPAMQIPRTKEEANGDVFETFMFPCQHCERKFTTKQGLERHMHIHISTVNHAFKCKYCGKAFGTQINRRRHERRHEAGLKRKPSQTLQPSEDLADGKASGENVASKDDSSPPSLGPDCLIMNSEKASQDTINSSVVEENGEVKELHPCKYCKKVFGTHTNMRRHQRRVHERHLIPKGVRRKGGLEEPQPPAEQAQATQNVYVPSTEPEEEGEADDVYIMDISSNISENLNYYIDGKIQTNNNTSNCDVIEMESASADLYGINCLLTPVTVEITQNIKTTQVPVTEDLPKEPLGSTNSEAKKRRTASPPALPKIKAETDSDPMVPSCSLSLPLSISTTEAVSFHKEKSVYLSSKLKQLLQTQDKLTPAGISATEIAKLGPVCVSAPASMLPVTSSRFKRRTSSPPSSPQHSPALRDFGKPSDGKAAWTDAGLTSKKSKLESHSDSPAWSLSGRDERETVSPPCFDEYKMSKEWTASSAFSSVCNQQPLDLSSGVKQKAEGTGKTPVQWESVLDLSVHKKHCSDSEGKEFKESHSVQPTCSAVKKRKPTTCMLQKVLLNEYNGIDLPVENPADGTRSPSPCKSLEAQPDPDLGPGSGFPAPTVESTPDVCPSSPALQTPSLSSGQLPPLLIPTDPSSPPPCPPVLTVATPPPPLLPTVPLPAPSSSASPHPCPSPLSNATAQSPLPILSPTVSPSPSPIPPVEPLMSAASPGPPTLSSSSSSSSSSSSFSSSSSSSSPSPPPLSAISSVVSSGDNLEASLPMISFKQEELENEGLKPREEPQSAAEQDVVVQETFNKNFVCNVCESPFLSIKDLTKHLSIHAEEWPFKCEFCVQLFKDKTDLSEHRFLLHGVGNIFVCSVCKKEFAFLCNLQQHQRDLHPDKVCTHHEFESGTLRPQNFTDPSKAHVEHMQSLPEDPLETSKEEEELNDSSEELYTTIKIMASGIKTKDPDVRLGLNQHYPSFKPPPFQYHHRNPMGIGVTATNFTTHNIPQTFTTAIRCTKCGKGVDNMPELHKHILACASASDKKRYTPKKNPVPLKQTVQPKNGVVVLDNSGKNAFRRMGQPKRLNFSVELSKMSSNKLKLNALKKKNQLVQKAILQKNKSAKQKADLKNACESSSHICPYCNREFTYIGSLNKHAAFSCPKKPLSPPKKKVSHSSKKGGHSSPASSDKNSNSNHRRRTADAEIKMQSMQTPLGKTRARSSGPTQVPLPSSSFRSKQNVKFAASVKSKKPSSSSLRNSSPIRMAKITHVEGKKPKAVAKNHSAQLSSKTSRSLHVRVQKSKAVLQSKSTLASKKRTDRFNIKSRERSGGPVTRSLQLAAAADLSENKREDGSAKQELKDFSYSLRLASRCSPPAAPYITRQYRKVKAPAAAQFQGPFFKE
Chain of PRDM14 (Q9GZV8 whole entry): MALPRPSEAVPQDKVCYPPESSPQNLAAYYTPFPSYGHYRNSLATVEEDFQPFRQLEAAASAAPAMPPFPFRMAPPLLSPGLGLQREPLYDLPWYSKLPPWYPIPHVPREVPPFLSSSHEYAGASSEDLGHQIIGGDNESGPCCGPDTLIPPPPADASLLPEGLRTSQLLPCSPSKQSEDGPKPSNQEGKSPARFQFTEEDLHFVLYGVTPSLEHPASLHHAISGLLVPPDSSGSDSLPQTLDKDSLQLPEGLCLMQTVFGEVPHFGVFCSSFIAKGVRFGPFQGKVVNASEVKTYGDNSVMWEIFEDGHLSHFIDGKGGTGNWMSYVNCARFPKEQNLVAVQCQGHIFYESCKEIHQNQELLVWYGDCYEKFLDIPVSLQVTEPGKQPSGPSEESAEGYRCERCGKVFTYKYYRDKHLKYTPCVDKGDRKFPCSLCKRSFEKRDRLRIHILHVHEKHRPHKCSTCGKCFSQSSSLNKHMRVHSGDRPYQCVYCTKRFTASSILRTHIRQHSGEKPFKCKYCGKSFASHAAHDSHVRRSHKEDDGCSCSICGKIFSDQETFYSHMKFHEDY
Chain of PRDM11 (Q9NQV5 whole entry): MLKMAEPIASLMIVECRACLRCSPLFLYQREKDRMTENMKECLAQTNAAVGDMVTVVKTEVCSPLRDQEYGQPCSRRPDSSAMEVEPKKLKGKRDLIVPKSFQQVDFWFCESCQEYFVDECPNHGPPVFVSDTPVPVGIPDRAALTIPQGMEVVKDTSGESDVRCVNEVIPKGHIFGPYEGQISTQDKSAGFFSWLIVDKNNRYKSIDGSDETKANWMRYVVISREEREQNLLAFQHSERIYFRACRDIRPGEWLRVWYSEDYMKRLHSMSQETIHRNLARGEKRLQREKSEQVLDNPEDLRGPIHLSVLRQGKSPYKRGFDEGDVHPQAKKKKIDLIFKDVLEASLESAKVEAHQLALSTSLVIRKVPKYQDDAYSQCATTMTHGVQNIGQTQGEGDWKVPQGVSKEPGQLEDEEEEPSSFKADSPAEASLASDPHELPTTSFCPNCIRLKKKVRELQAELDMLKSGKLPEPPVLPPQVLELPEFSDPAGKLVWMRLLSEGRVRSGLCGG
Chain of PRDM13 (Q9H4Q3 whole entry): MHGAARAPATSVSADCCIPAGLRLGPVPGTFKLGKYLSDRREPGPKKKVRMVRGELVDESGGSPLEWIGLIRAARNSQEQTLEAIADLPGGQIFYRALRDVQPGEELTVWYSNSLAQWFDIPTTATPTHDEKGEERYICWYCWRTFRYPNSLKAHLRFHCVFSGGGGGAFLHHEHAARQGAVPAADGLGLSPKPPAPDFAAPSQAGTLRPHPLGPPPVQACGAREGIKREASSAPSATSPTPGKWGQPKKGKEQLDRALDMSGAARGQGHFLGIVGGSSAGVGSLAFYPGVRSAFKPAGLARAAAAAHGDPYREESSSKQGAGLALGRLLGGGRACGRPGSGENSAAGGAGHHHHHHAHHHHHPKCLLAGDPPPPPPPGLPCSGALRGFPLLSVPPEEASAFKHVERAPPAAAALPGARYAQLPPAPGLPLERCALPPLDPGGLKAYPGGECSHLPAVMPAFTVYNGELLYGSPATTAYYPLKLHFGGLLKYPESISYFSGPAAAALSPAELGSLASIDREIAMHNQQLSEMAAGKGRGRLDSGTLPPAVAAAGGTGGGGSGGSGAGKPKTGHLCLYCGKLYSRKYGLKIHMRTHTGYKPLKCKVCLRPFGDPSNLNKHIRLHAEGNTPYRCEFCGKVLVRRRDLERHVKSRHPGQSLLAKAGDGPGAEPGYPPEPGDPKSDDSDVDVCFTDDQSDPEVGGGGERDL

| SMILES | HEK293T cell growth, toxicity (in words) (HEK293T cells [1]; 10 µM) | HEK293T cytotoxicity (in words) (HEK293T cells [1]; 10 µM) | Cell growth (Cell#) (HEK293T cells [1]; HEK293, 2 day treatement, 1 µM) | Cell growth (Cell#) (HEK293T cells [1]; HEK293, 2 day treatement, 3 µM) | Cell growth (Cell#) (HEK293T cells [1]; HEK293, 2 day treatement, 5 µM) | Cell growth (Cell#) (HEK293T cells [1]; [3]) | Cell growth (Cell#) (HEK293T cells [1]; [4]) | Cell growth (Cell#) (HEK293T cells [1]; HEK293, 4 day treatement, 1 µM) | Cell growth (Cell#) (HEK293T cells [1]; HEK293, 4 day treatement, 3 µM) | Cell growth (Cell#) (HEK293T cells [1]; [5]) | Meiotic phenotype of spermatocytes, pachytene stage (in words) (spermatocytes) | HEK293T cell growth (in words) (HEK293T cells [2]; 3 µM) | Cell# - toxocity data, % Control (HEK293T cells [2]; 1 µM) | Cell# - toxocity data, % Control (HEK293T cells [2]; 3 µM) | Cell# - toxocity data, % Control (HEK293T cells [2]; 5 µM) | Cell# - toxocity data, % Control (HEK293T cells [2]; 10 µM) | further results |
| --- | --- | --- | --- | --- | --- | --- | --- | --- | --- | --- | --- | --- | --- | --- | --- | --- | --- |
| COc1cc(OC)cc(-c2noc(N3CCN(C)C4(CCN(c5ccccc5)CC4)C3)n2)c1 [MRK-740-NC] | some toxicity | cytotoxicity was observed | 131.284 % control and 117.713 % control and 90.9177 % control | 132.069 % control and 120.302 % control and 91.1588 % control | 115.543 % control and 108.951 % control and 80.3231 % control | 46.5996 % control and 35.6574 % control and 30.4049 % control | 101.286 % control and 102.18 % control and 103.656 % control | 105.145 % control and 104.341 % control and 101.342 % control | 105.432 % control and 102.893 % control and 103.306 % control | 42.1082 % control and 39.7636 % control and 39.5419 % control | Normal synaptonemal complex formation; also recorded: no overt meiotic defects | neither compound affected HEK293T cell growth | 113.12 % Control and 118.767 % Control and 86.3705 % Control | 125.539 % Control and 114.582 % Control and 84.3363 % Control | 86.195 % Control and 121.075 % Control and 87.3323 % Control | 76.5766 % Control and 74.1915 % Control and 52.2642 % Control | – |
| COc1cc(OC)cc(-c2noc(N3CCN(C)C4(CCN(c5ccnc(C)c5)CC4)C3)n2)c1 [MRK-740] | some toxicity | cytotoxicity was observed | 84.8973 % control and 124.131 % control and 116.53 % control | 73.843 % control and 124.215 % control and 124.008 % control | 68.7811 % control and 110.358 % control and 122.96 % control | 55.0249 % control and 90.6823 % control and 84.1686 % control | 115.326 % control and 111.309 % control and 103.491 % control | 115.93 % control and 116.134 % control and 111.504 % control | 115.346 % control and 109.669 % control and 118.771 % control | 47.3939 % control and 45.1607 % control and 39.6851 % control | Abnormal synaptonemal complex formation; also recorded: meiotic defects including non-homologous synapsis or failed pairing of chromosomal homologs | neither compound affected HEK293T cell growth | 89.1325 % Control and 119.658 % Control and 130.764 % Control | 81.2039 % Control and 117.832 % Control and 120.808 % Control | 86.208 % Control and 117.65 % Control and 129.14 % Control | 89.6654 % Control and 116.798 % Control and 107.394 % Control | ∆ Tm (°C), DSF (PRDM1): -0.458 °C; ∆ Tm (°C), DSF (PRDM10): -0.4 °C; ∆ Tm (°C), DSF (PRDM11): -0.536 °C; ∆ Tm (°C), DSF (PRDM12): -0.9 °C; ∆ Tm (°C), DSF (PRDM13): -1.0 °C; ∆ Tm (°C), DSF (PRDM14): -2.3 °C; ∆ Tm (°C), DSF (PRDM16): -0.225 °C; ∆ Tm (°C), DSF (PRDM2): -1.1 °C; ∆ Tm (°C), DSF (PRDM3): -1.3 °C; ∆ Tm (°C), DSF (PRDM6): -0.633 °C |

— PMC6917776, “Discovery of a chemical probe for PRDM9” (Nature Communications, 2019)
